Assay results: patent US20160257651A1, “NOVEL COMPOUND WITH ANTIBACTERIAL ACTIVITY” (priority 2013, published 2016)
Converted amounts (≈) assume the structure as drawn. Read-outs that look alike come from different tables or passages of the source.

Legend:
[1] = tested on: Staphylococcus aureus ATCC29213 (MSSA); experiment: MIC, S. aureus categories (Test Example 3); assay type: cell-based; details: strain ATCC29213, MSSA
Procedure: (§1) The antibacterial activities of the compound J-131CP against Staphylococcus aureus strains belonging to the five categories of Staphylococcus aureus, i.e., MSSA, MRSA, community-acquired-infection type MRSA (CA-MRSA), VISA, and VRSA, were investigated.
(§2) The compound J-131CP and quinolones were prepared in the same manner as that of Test Example 1-1.
(§3) Cell suspensions were prepared in the same manner as that of Test Example 1-1 described in the section of measurement of MIC in Test Example 1-1, except that the strains mentioned in Table 6 were used as Staphylococcus aureus, and MICs of the compound J-131CP and quinolones as the control were determined for the strains in the same manner as that of Test Example 1-1. In Table 6, the amino acid substitution mutations in QRDR of the strains are underlined.

[2] = tested on: Staphylococcus aureus BR2 (VISA); experiment: MIC, S. aureus categories (Test Example 3); assay type: cell-based
Procedure: as §1, §2, §3

[3] = tested on: Staphylococcus aureus KSA36 (MRSA); experiment: MIC, S. aureus categories (Test Example 3); assay type: cell-based
Procedure: as §1, §2, §3

[4] = tested on: Staphylococcus aureus MI (VISA); experiment: MIC, S. aureus categories (Test Example 3); assay type: cell-based
Procedure: as §1, §2, §3

[5] = tested on: Staphylococcus aureus MW2 (CA-MRSA); experiment: MIC, S. aureus categories (Test Example 3); assay type: cell-based; details: strain MW2, CA-MRSA
Procedure: as §1, §2, §3

[6] = tested on: Staphylococcus aureus NCTC8325 (MSSA); experiment: MIC, S. aureus categories (Test Example 3); assay type: cell-based; details: strain NCTC8325, MSSA
Procedure: as §1, §2, §3

[7] = tested on: Staphylococcus aureus USA300FPR (CA-MRSA); experiment: MIC, S. aureus categories (Test Example 3); assay type: cell-based
Procedure: as §1, §2, §3

[8] = tested on: Staphylococcus aureus VRS1 (VRSA); experiment: MIC, S. aureus categories (Test Example 3); assay type: cell-based
Procedure: as §1, §2, §3

[9] = tested on: Staphylococcus aureus VRS3a (VRSA); experiment: MIC, S. aureus categories (Test Example 3); assay type: cell-based
Procedure: as §1, §2, §3

[10] = tested on: Staphylococcus aureus VRS5 (VRSA); experiment: MIC, S. aureus categories (Test Example 3); assay type: cell-based
Procedure: as §1, §2, §3

E. faecalis 36-15722 = experiment: MIC against Enterococcus bacteria; assay type: cell-based, Enterococcus faecalis; details: Enterococcus faecalis, 3615722
Procedure: Antibacterial activities of the compound J-131CP against Enterococcus bacteria (Enterococcus faecium and Enterococcus faecalis) were examined by the following methods.
as §2
Cell suspensions were prepared in the same manner as that of Test Example 1-1 described in the section of measurement of MIC in Test Example 1-1, except that the Enterococcus bacterium strains mentioned in Table 8 were used instead of Staphylococcus aureus, and MICs of the compound J-131CP and quinolones as control were determined for the strains in the same manner as that of Test Example 1-1 described in the section of measurement of MIC in Test Example 1-1. In Table 8, the amino acid substitution mutations in QRDR of the strains are underlined.

S. pneumoniae BCLSP16 = experiment: MIC against pneumococcus, CAMHB with 5 mass % LHB; assay type: cell-based; details: Streptococcus pneumoniae
From the text: (§4) Antibacterial activity of the compound J-131CP against pneumococcus (Streptococcus pneumoniae) was examined by the following method. The S. pneumoniae strains used for this test belong to any one of the categories of penicillin-susceptible pneumococcus (penicillin-susceptible Streptococcus pneumoniae, PSSP), penicillin-intermediate pneumococcus (penicillin-intermediate Streptococcus pneumoniae, PISP), and penicillin-resistant pneumococcus (penicillin-resistant Streptococcus pneumoniae, PRSP).
(§5) The compound J-131CP and quinolones were prepared in the same manner as that of Test Example 1-1, except that CAMHB containing 5 mass % of lysed horse blood (LHB) was used for the dilution instead of CAMHB. The lysed horse blood was prepared by adding sterilized water to horse sterile defibered blood (produced by Nippon Bio-Supp. Center) at a ratio of 1:1, subjecting the mixture to freezing and thawing 5 times, then centrifuging the mixture twice at 10,000 rpm for 20 minutes, and filtering the supernatant through a filter.
(§6) The S. pneumoniae strains mentioned in Table 11 were each cultured overnight at 37° C. on a blood agar medium as stationary culture. The blood agar medium was prepared by adding 5 mass % ovine sterile defibered blood (produced by Nippon Bio-Supp. Center) to a heart infusion agar medium (produced by EIKEN CHEMICAL). Each S. pneumoniae strain cultured overnight at 37° C. as stationary culture was further subcultured overnight at 37° C. on fresh blood agar medium as stationary culture. After completion of the culture, cells of each pneumococcus strain were collected with a swab, and suspended in physiological saline, and the suspension was adjusted with physiological saline to show absorbance of 0.08 to 0.13 at 625 nm as measured with an absorbance meter (produced by Amersham), and further diluted 200 times with CAMHB containing 5 mass % LHB.
(§7) CAMHB containing the compound J-131CP at each concentration or each quinolone at each concentration, and 5 mass % LHB was added to each well of a 96-well plate in a volume of 50 μL/well, each cell suspension diluted 200 times was added to the well in a volume of 50 μL/well, and stationary culture was carried out overnight at 37° C.
(§8) After completion of the culture, whether the bacterium proliferated or not was determined on the basis of visually observed turbidity of the culture in the well, and MIC values (mg/L) of the compound J-131CP and the quinolones for the strains were determined. In Table 11, the amino acid substitution mutations in QRDR of the strains are underlined.

S. pneumoniae JHSP11 = experiment: MIC against pneumococcus, CAMHB with 5 mass % LHB; assay type: cell-based; details: Streptococcus pneumoniae
From the text: as §4, §5, §6, §7, §8

S. pneumoniae KBSP04 = experiment: MIC against pneumococcus, CAMHB with 5 mass % LHB; assay type: cell-based; details: Streptococcus pneumoniae
From the text: as §4, §5, §6, §7, §8

[11] = Staphylococcus aureus, read-out: MIC
[12] = E. faecalis 36-15722, quinolone-resistant, ParC 80Ile, GyrA 84Ile, read-out: MIC
[13] = S. pneumoniae KBSP04, PISP, read-out: MIC

SMILES	MIC ([1]; read-out: MIC) [µg/mL]	MIC [2] [µg/mL]	MIC [3] [µg/mL]	MIC [4] [µg/mL]	MIC [5, 11] [µg/mL]	MIC [6, 11] [µg/mL]	MIC [7] [µg/mL]	MIC [8] [µg/mL]	MIC [9] [µg/mL]	MIC [10] [µg/mL]	MIC (E. faecalis 36-15722; [12]) [µg/mL]	MIC (S. pneumoniae BCLSP16; BCLSP16) [µg/mL]	MIC (S. pneumoniae JHSP11) [µg/mL]	MIC (S. pneumoniae KBSP04; [13]) [µg/mL]	MIC (S. pneumoniae KBSP04; KBSP04) [µg/mL]	further results
CC1COc2c(N3CCN(C)CC3)c(F)cc3c(=O)c(C(=O)O)cn1c23 (centres unmarked) [OFX, ofloxacin]	0.25 (≈ 0.692 µM)	64 (≈ 177 µM)	> 128	128 (≈ 354 µM)	0.5 (≈ 1.38 µM)	0.25 (≈ 0.692 µM)	16 (≈ 44.3 µM)	32 (≈ 88.6 µM)	32 (≈ 88.6 µM)	> 128	64 (≈ 177 µM)	16 (≈ 44.3 µM)	8 (≈ 22.1 µM)	0.5 (≈ 1.38 µM)		
O=c1cc(CO)c2cc(F)c(-c3ccc(O)cc3)cc2n1C1CC1 [J-131CP, 1-cyclopropyl-6-fluoro-4-(hydroxymethyl)-7-(4-hydroxyphenyl)-1,2-dihydroquinolin-2-one]	0.25 (≈ 0.768 µM)	≤ 0.06	≤ 0.06	≤ 0.06			≤ 0.06	≤ 0.06	≤ 0.06	≤ 0.06	1 (≈ 3.07 µM)	4 (≈ 12.3 µM)	4 (≈ 12.3 µM)		4 (≈ 12.3 µM)	MIC [1]: 0.125 to 0.25 µg/mL (≈ 0.384 to 0.768 µM); MIC ([5]; Staphylococcus aureus, MRSA): 0.125 to 0.25 µg/mL (≈ 0.384 to 0.768 µM); MIC [5]: 0.125 µg/mL (≈ 0.384 µM); MIC ([6]; Staphylococcus aureus): 0.125 to 0.25 µg/mL (≈ 0.384 to 0.768 µM); MIC [6]: 0.125 µg/mL (≈ 0.384 µM)
C[C@H]1COc2c(N3CCN(C)CC3)c(F)cc3c(=O)c(C(=O)O)cn1c23 [LVX, levofloxacin]		8 (≈ 22.1 µM)	> 128	32 (≈ 88.6 µM)		0.25 (≈ 0.692 µM)	4 (≈ 11.1 µM)	16 (≈ 44.3 µM)	16 (≈ 44.3 µM)	> 128	36 (≈ 99.6 µM)	32 (≈ 88.6 µM)	64 (≈ 177 µM)	2 (≈ 5.53 µM)		MIC [1]: 0.125 µg/mL (≈ 0.346 µM); MIC ([5]; Staphylococcus aureus, MRSA): 0.125 µg/mL (≈ 0.346 µM)
O=C(O)c1cn(C2CC2)c2cc(N3CCNCC3)c(F)cc2c1=O [CIP, ciprofloxacin]	0.25 (≈ 0.754 µM)	4 (≈ 12.1 µM)	128 (≈ 386 µM)	16 (≈ 48.3 µM)	0.25 (≈ 0.754 µM)	0.25 (≈ 0.754 µM)	16 (≈ 48.3 µM)	128 (≈ 386 µM)	64 (≈ 193 µM)	> 128			> 32	0.5 (≈ 1.51 µM)		MIC (E. faecalis 36-15722): 64 µg/mL (≈ 193 µM); MIC (S. pneumoniae BCLSP16; S. pneumoniae BCLSP16, PSSP, ParC 79Tyr, GyrA 81Phe, read-out: MIC): > 32 µg/mL
CCn1cc(C(=O)O)c(=O)c2cc(F)c(N3CCNCC3)cc21 [NOR, norfloxacin]	1 (≈ 3.13 µM)	64 (≈ 200 µM)	> 128	128 (≈ 401 µM)	0.5 (≈ 1.57 µM)	1 (≈ 3.13 µM)	32 (≈ 100 µM)	> 128	128 (≈ 401 µM)	> 128	128 (≈ 401 µM)	> 128	128 (≈ 401 µM)	4 (≈ 12.5 µM)		
NC1CCN(c2nc3c(cc2F)c(=O)c(C(=O)O)cn3-c2ccc(F)cc2F)C1 (centres unmarked) [TSX, tosufloxacin]	≤ 0.06	32 (≈ 79.1 µM)	> 128	16 (≈ 39.6 µM)	≤ 0.06	≤ 0.06	16 (≈ 39.6 µM)	4 (≈ 9.89 µM)	> 128	> 128	> 128	8 (≈ 19.8 µM)	8 (≈ 19.8 µM)		0.125 (≈ 0.309 µM)	
C[C@@H]1CN(c2c(F)c(N)c3c(=O)c(C(=O)O)cn(C4CC4)c3c2F)C[C@H](C)N1 [SPX, sparfloxacin]	≤ 0.06	32 (≈ 81.5 µM)	128 (≈ 326 µM)	32 (≈ 81.5 µM)	≤ 0.06		8 (≈ 20.4 µM)	8 (≈ 20.4 µM)	16 (≈ 40.8 µM)	128 (≈ 326 µM)	64 (≈ 163 µM)	16 (≈ 40.8 µM)	> 32		0.125 (≈ 0.319 µM)	MIC ([6]; Staphylococcus aureus): 0.125 µg/mL (≈ 0.319 µM)
